Experimental data published in patent publication US20250340574A1, “MODULATORS OF CYSTIC FIBROSIS TRANSMEMBRANE CONDUCTANCE REGULATOR” (Vertex Pharmaceuticals Incorporated, priority 2022, published 2025).
Where two headings read alike, the source gives them in different places. One block for each molecule: values may come before it.

Tests used:
[1] = amide bond, 13-membered ring, CDMT/NMM, DMF
[2] = target: T1, CFTR (F508del/MF-HBE cells) (Homo sapiens, UniProt P13569, DEL508-508); assay: Ussing chamber assay of CFTR-mediated short-circuit currents, Assay C (0.026 μM to 25 μM, 6 concentrations); assay type: cell-based; details: with 33 nM potentiator and 18 μM Tezacaftor, 20% human serum; for Emax: read-out: C Max activity (%)
T1 construct: human bronchial epithelial (HBE) cells derived from CF subjects heterozygous for F508del and a minimal function CFTR mutation (F508del/MF-HBE); endogenous in cells; host or cells: Primary human bronchial epithelial cells from CF subjects (F508del/MF genotype), differentiated at an air-liquid interface
How it was run: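 F508del/MF-HBE cells were preincubated 18–24 h at 37 °C in 20% human serum with corrector plus 18 μM tezacaftor and either 33 nM (concentration series) or 44 nM (1 μM single point) of the aminotrifluoromethyl triazatricyclic potentiator. Ussing chamber, Vhold=0 mV, 37 °C; forskolin 20 μM stimulation, CFTR ISC taken as inhibitor-cocktail-sensitive current.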

T1 sequence (P13569 with tags, fused parts or gaps DEL508-508): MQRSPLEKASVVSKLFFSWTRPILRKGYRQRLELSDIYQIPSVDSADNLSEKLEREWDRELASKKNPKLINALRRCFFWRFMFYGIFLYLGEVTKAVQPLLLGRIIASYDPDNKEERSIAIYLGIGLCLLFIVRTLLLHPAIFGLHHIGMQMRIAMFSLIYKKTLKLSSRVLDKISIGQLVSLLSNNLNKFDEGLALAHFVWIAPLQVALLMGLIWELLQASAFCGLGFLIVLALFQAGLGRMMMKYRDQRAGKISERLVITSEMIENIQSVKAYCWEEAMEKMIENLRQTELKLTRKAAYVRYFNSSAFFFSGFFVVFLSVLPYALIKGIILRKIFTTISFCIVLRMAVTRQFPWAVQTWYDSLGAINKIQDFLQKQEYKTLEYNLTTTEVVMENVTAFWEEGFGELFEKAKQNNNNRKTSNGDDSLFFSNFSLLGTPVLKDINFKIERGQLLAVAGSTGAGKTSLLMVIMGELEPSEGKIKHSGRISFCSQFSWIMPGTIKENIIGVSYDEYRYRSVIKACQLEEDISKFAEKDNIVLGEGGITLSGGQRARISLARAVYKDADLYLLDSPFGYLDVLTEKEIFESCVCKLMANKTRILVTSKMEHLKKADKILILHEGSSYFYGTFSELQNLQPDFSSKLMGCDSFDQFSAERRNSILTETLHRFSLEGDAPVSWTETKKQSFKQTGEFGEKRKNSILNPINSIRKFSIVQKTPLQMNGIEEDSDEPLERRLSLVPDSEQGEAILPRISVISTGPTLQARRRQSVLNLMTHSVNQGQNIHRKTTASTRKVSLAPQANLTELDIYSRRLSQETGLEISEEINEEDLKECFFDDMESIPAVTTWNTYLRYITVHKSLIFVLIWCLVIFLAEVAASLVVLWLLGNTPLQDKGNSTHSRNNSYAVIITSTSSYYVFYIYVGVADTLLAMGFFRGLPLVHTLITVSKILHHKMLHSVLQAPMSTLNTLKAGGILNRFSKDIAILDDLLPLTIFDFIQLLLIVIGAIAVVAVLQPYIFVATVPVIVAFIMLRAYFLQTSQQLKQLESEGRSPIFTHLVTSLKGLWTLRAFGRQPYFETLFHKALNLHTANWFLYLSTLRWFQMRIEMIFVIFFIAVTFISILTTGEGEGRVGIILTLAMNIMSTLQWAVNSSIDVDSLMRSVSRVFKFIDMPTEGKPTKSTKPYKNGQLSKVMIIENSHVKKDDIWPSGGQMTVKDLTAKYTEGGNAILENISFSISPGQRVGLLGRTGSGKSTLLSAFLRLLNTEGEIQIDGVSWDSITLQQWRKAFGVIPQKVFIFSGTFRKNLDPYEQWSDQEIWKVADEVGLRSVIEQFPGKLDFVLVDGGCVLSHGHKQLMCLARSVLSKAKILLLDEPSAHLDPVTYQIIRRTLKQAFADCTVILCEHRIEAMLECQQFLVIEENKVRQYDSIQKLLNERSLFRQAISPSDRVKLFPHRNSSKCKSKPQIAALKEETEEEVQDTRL

Molecule: Cc1cccc(C)c1-c1cc2nc(n1)NS(=N)(=O)c1cccc(c1)C(=O)N(Cc1cnc3oc(C4CC4)cc3n1)[C@H](CC(C)(C)C)CO2 (single isomer, unassigned; isomer a)
ring closure, yield after HPLC ([1]; from 3-[[[4-[(2R)-2-[(6-Cyclopropylfuro[2,3-b]pyrazin-2-yl)methylamino]-4,4-dimethyl-pentoxy]-6-(2,6-dimethylphenyl)pyrimidin-2-yl]amino]sulfonimidoyl]benzoic acid (hydrochloride salt) (isomer A), 14.2 mM): 23%

Molecule: Cc1cccc(C)c1-c1cc2nc(n1)NS(=O)(=O)c1cccc(c1)C(=O)N(Cc1cnc3cc(C(C)(C)C)n(C)c3n1)[C@H](C1CCCO1)CO2 (single isomer, unassigned; isomer a)
ring closure, yield after HPLC ([1]; from Cc1cccc(C)c1-c1cc(OC[C@H](NCc2cnc3cc(C(C)(C)C)n(C)c3n2)C2CCCO2)nc(NS(=O)(=O)c2cccc(C(=O)O)c2)n1, 13.2 mM, 25.0 °C, 20.0 h): 53%

Molecule: Cc1cccc(C)c1-c1cc2nc(n1)NS(=O)(=O)c1cccc(c1)C(=O)N(Cc1cnc3cc(C(C)(C)C)n(C)c3n1)[C@H](C1CCCO1)CO2 (single isomer, unassigned; isomer b)
ring closure, yield after HPLC ([1]; from Cc1cccc(C)c1-c1cc(OC[C@H](NCc2cnc3cc(C(C)(C)C)n(C)c3n2)C2CCCO2)nc(NS(=O)(=O)c2cccc(C(=O)O)c2)n1, 15.5 mM, 25.0 °C, 20.0 h): 55%

Emax ([2]; 18-24 hours): > 60%
EC50 [2]: 3 to 30 µM
Molecule: Cc1cccc(C)c1-c1cc2nc(n1)NS(=O)(=O)c1cccc(c1)C(=O)N(Cc1cnc3oc(C4(C)CCC4)cc3n1)[C@H](CC1(C)CC1)CO2 [Compound I-143, (11R)-6-(2,6-Dimethylphenyl)-12-[[6-(1-methylcyclobutyl)furo[2,3-b]pyrazin-2-yl]methyl]-11-[(1-methylcyclopropyl)methyl]-2,2-dioxo-9-oxa-2λ^6-thia-3,5,12,19-tetrazatricyclo[12.3.1.14,8]nonadeca-1(18),4(19),5,7,14,16-hexaen-13-one]
ring closure, yield after HPLC ([1]; from Cc1cccc(C)c1-c1cc(OC[C@@H](CC2(C)CC2)NCc2cnc3oc(C4(C)CCC4)cc3n2)nc(NS(=O)(=O)c2cccc(C(=O)O)c2)n1, 44.8 mM, 16.0 h): 56%

Emax ([2]; 18-24 hours): > 60%
EC50 [2]: 1 to 3 µM
Molecule: Cc1cccc(C)c1-c1cc2nc(n1)NS(=O)(=O)c1cccc(c1)C(=O)N(Cc1nc3cc(C4CC4)oc3cc1F)[C@H](CC1(C)CC1)CO2 [Compound I-197, (11R)-12-[(2-cyclopropyl-6-fluoro-furo[3,2-b]pyridin-5-yl)methyl]-6-(2,6-dimethylphenyl)-11-[(1-methylcyclopropyl)methyl]-2,2-dioxo-9-oxa-2λ^6-thia-3,5,12,19-tetrazatricyclo[12.3.1.14,8]nonadeca-1(18),4(19),5,7,14,16-hexaen-13-one]
ring closure, yield after HPLC ([1]; from Cc1cccc(C)c1-c1cc(OC[C@@H](CC2(C)CC2)NCc2nc3cc(C4CC4)oc3cc2F)nc(NS(=O)(=O)c2cccc(C(=O)O)c2)n1, 19.2 mM, 16.33 h): 62%

Emax ([2]; 18-24 hours): > 60%
EC50 [2]: 1 to 3 µM
Molecule: Cc1cccc(C)c1-c1cc2nc(n1)NS(=O)(=O)c1cccc(c1)C(=O)N(Cc1cnc3c(n1)C(=O)N(C(C)C)C3)[C@H](CC1(C)CC1)CO2 [III-21, (11R)-6-(2,6-Dimethylphenyl)-12-[(6-isopropyl-5-oxo-7H-pyrrolo[3,4-b]pyrazin-3-yl)methyl]-11-[(1-methylcyclopropyl)methyl]-2,2-dioxo-9-oxa-2λ^6-thia-3,5,12,19-tetrazatricyclo[12.3.1.14,8]nonadeca-1(18),4(19),5,7,14,16-hexaen-13-one]
ring closure, yield after HPLC ([1]; from Cc1cccc(C)c1-c1cc(OC[C@@H](CC2(C)CC2)NCc2cnc3c(n2)C(=O)N(C(C)C)C3)nc(NS(=O)(=O)c2cccc(C(=O)O)c2)n1, 9.0 mM, 16.5 h): 31%

EC50 [2]: 1 to 3 µM
Emax [2]: > 60%
Molecule: Cc1cccc(C)c1-c1cc2nc(n1)NS(=O)(=O)c1cccc(c1)C(=O)N(Cc1cnc3sc(C4CC4)cc3n1)[C@H](CC13CC(C1)C3)CO2 [IV-42, (11R)-11-(1-bicyclo[1.1.1]pentanylmethyl)-12-[(6-cyclopropylthieno[2,3-b]pyrazin-2-yl)methyl]-6-(2,6-dimethylphenyl)-2,2-dioxo-9-oxa-2λ^6-thia-3,5,12,19-tetrazatricyclo[12.3.1.14,8]nonadeca-1(18),4(19),5,7,14,16-hexaen-13-one]
ring closure, yield after HPLC ([1]; from Cc1cccc(C)c1-c1cc(OC[C@@H](CC23CC(C2)C3)NCc2cnc3sc(C4CC4)cc3n2)nc(NS(=O)(=O)c2cccc(C(=O)O)c2)n1, 8.92 mM, 25.0 °C, 18.0 h): 54%

EC50 [2]: 3 to 30 µM
Emax [2]: > 60%
Molecule: Cc1cccc(C)c1-c1cc2nc(n1)NS(=O)(=O)c1cccc(c1)C(=O)N(Cc1cnc3cc(C(C)(C)C)[nH]c3n1)[C@H](CC1(C)CC1)CO2 [IV-54, (11R)-12-[(6-tert-butyl-5H-pyrrolo[2,3-b]pyrazin-3-yl)methyl]-6-(2,6-dimethylphenyl)-11-[(1-methylcyclopropyl)methyl]-2,2-dioxo-9-oxa-2λ^6-thia-3,5,12,19-tetrazatricyclo[12.3.1.14,8]nonadeca-1(18),4(19),5,7,14,16-hexaen-13-one]
ring closure, yield after HPLC ([1]; from Cc1cccc(C)c1-c1cc(OC[C@@H](CC2(C)CC2)NCc2cnc3cc(C(C)(C)C)[nH]c3n2)nc(NS(=O)(=O)c2cccc(C(=O)O)c2)n1, 9.99 mM, 25.0 °C, 5.5 h): 44%

EC50 [2]: < 1 µM
Emax [2]: > 60%
Molecule: CCc1cccc(CC)c1-c1cc2nc(n1)NS(=O)(=O)c1cccc(c1)C(=O)N(Cc1cnc3c(CCOC)c(C(C)(C)C)n(C)c3n1)[C@H](CC(C)C)CO2 [IV-92, (11R)-12-[[6-tert-butyl-7-(2-methoxyethyl)-5-methyl-pyrrolo[2,3-b]pyrazin-3-yl]methyl]-6-(2,6-diethylphenyl)-11-isobutyl-2,2-dioxo-9-oxa-2λ^6-thia-3,5,12,19-tetrazatricyclo[12.3.1.14,8]nonadeca-1(18),4(19),5,7,14,16-hexaen-13-one]
ring closure, yield after HPLC ([1]; from CCc1cccc(CC)c1-c1cc(OC[C@@H](CC(C)C)NCc2cnc3c(CCOC)c(C(C)(C)C)n(C)c3n2)nc(NS(=O)(=O)c2cccc(C(=O)O)c2)n1, 34.0 mM, 25.0 °C, 2.0 h): 22%

EC50 [2]: < 1 µM
Emax [2]: > 60%
Molecule: Cc1cccc(C)c1-c1cc2nc(n1)NS(=O)(=O)c1cccc(c1)C(=O)N(Cc1cnc3c(F)c(C4(C)CC4)n(C)c3n1)[C@H](CC1(C)CC1)CO2 [IV-93, (11R)-6-(2,6-dimethylphenyl)-12-[[7-fluoro-5-methyl-6-(1-methylcyclopropyl)pyrrolo[2,3-b]pyrazin-3-yl]methyl]-11-[(1-methylcyclopropyl)methyl]-2,2-dioxo-9-oxa-2λ^6-thia-3,5,12,19-tetraza-tricyclo[12.3.1.14,8]nonadeca-1(18),4(19),5,7,14,16-hexaen-13-one]
ring closure, yield after HPLC ([1]; from Cc1cccc(C)c1-c1cc(OC[C@@H](CC2(C)CC2)NCc2cnc3c(F)c(C4(C)CC4)n(C)c3n2)nc(NS(=O)(=O)c2cccc(C(=O)O)c2)n1, 10.1 mM, 25.0 °C, 16.5 h): 20%

Molecule: (5P,11R)-6-[2-(cyclopentylmethyl)-6-methylphenyl]-11-(2,2-dimethylpropyl)-7-methyl-12-{[5-methyl-6-(propan-2-yl)-5H-pyrrolo[2,3-b]pyrazin-3-yl]methyl}-9-oxa-2λ^6-thia-3,5,12,19-tetraazatricyclo[12.3.1.1∧{4,8}]nonadeca-1(17),4(19),5,7,14(18),15-hexaene-2,2,13-trione
ring closure, yield after HPLC ([1]; 9.74 mM): 45%

Molecule: (5P,11R)-7-methyl-6-[2-methyl-6-(2-methylpropyl)phenyl]-12-({5-methyl-6-[1-(trifluoromethyl)cyclopropyl]-5H-pyrrolo[2,3-b]pyrazin-3-yl}methyl)-11-[(propan-2-yloxy)methyl]-9-oxa-2λ^6-thia-3,5,12,19-tetraazatricyclo[12.3.1.1∧{4,8}]nonadeca-1(18),4(19),5,7,14,16-hexaene-2,2,13-trione
ring closure, yield after HPLC ([1]; 13.9 mM, 25.0 °C): 65%

Molecule: (5P,11R)-11-({bicyclo[1.1.1]pentan-1-yl}methyl)-12-({6-tert-butyl-5-methyl-5H-pyrrolo[2,3-b]pyrazin-3-yl}methyl)-7-methyl-6-[2-methyl-6-(2-methylpropyl)phenyl]-9-oxa-2λ^6-thia-3,5,12,19-tetraazatricyclo[12.3.1.1∧{4,8}]nonadeca-1(17),4(19),5,7,14(18),15-hexaene-2,2,13-trione
ring closure, yield after HPLC ([1]; 22.6 mM, 25.0 °C): 76%

Molecule: (5P,11R)-12-({6-tert-butyl-5-methyl-5H-pyrrolo[2,3-b]pyrazin-3-yl}methyl)-11-(2,2-dimethylpropyl)-7-methyl-6-[2-methyl-6-(2-methylpropyl)phenyl]-9-oxa-2λ^6-thia-3,5,12,19-tetraazatricyclo[12.3.1.1∧{4,8}]nonadeca-1(17),4(19),5,7,14(18),15-hexaene-2,2,13-trione
ring closure, yield after HPLC ([1]; 14.0 mM): 61%

Molecule: (6P,11S)-12-({6-tert-butyl-5-methyl-5H-pyrrolo[2,3-b]pyrazin-3-yl}methyl)-7-methyl-6-[2-methyl-6-(2-methylpropyl)phenyl]-11-[(trifluoromethoxy)methyl]-9-oxa-2λ^6-thia-3,5,12,19-tetraazatricyclo[12.3.1.1∧{4,8}]nonadeca-1(17),4,6,8(19),14(18),15-hexaene-2,2,13-trione
ring closure, yield after HPLC ([1]; 8.87 mM, 25.0 °C): 36%
